Measurements from US11180462B2, “Microbiocidal oxadiazole derivatives” (SYNGENTA PARTICIPATIONS AG, priority 2015, dated 2021).

Assays:
[1] = test system: Puccinia recondita f. Sp. Tritici; assay: Fungicidal activity against Puccinia recondita f. sp. tritici / wheat / leaf disc curative (brown rust); format: in vivo; conditions: foliar, 24 h, 200 ppm in the applied formulation, wheat leaf segments, curative (applied 1 day after inoculation), compared to untreated control leaf disks, read-out: disease control
In short: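 Scoring is percent disease control relative to untreated segments, made 6 to 8 days after treatment. Wheat (cv. Kanzler) leaf segments received the formulated, water-diluted compound one day post-inoculation with spores, having been kept dark at 19° C and 75% RH, then incubated under 12 h light/12 h dark at the same temperature and humidity.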

[2] = test system: Puccinia recondita f. Sp. Tritici; assay: Fungicidal activity against Puccinia recondita f. sp. tritici / wheat / leaf disc preventative (brown rust); format: in vivo; conditions: foliar, 200 ppm in the applied formulation, wheat leaf segments, preventative, compared to untreated control leaf disks, read-out: disease control
In short: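 Preventative leaf-segment test, wheat cv. Kanzler on water agar. Spray compound at 200 ppm, inoculate with spores 1 day later; 19° C., 75% rh, 12/12 h light. Read-out: % disease control vs untreated, 7 to 9 days after application.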

[3] = test system: Glomerella lagenarium (Colletotrichum lagenarium); assay: Fungicidal activity against Glomerella lagenarium (Colletotrichum lagenarium) liquid culture / cucumber / preventative (anthracnose); format: cell-based; conditions: Colletotrichum orbiculare; 20 ppm in the applied formulation; liquid culture (PDB), growth inhibition measured photometrically after 3 to 4 days; compared to untreated control; read-out: disease control
In short: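 Photometric read-out of fungal growth after 2–7 days, expressed as percent antifungal activity versus untreated check. Cryo-stored conidia in PDB; compound at 20 ppm; dark, 24 °C, 96% RH.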

Phakopsora Pachyrhizi = assay: Fungicidal activity against Phakopsora pachyrhizi / soybean / leaf disc preventative (Asian soybean rust); format: in vivo; conditions: foliar, 200 ppm in the applied formulation, soybean leaf disks, compared to untreated control leaf disks, read-out: disease control
In short: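 Preventative soybean leaf-disc test: discs on water agar sprayed with diluted formulated compound, inoculated one day later with spores on the lower surface. Held 24–36 h dark at 20°C, 75% rh, then 12 h light/day; percent disease control versus untreated discs scored 12–14 days after application.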

C=CCN(Cc1ccc(-c2noc(C(F)(F)F)n2)cc1)C(=O)CCCOC [Compound 1.487, N-allyl-4-methoxy-N-[[4-[5-(trifluoromethyl)-1,2,4-oxadiazol-3-yl]phenyl]methyl]-butanamide]
≥ 80%: pest or weed control at 200 ppm [1] | pest or weed control at 200 ppm [2] | inhibition of growth at 20 ppm [3] | pest or weed control at 200 ppm (Phakopsora Pachyrhizi)

C#CCN(Cc1ccc(-c2noc(C(F)(F)F)n2)cc1)C(=O)C(C)C [Compound 1.155, 2-methyl-N-prop-2-ynyl-N-[[4-[5-(trifluoromethyl)-1,2,4-oxadiazol-3-yl]phenyl]methyl]-propanamide]
≥ 80%: pest or weed control at 200 ppm [1] | pest or weed control at 200 ppm [2] | inhibition of growth at 20 ppm [3] | pest or weed control at 200 ppm (Phakopsora Pachyrhizi)

CCN(Cc1ccc(-c2noc(C(F)(F)F)n2)cc1)C(=O)CC#N [Compound 1.510, 2-cyano-N-ethyl-N-[[4-[5-(trifluoromethyl)-1,2,4-oxadiazol-3-yl]phenyl]methyl]-acetamide]
≥ 80%: pest or weed control at 200 ppm [1] | pest or weed control at 200 ppm [2] | inhibition of growth at 20 ppm [3] | pest or weed control at 200 ppm (Phakopsora Pachyrhizi)

C#CCN(Cc1ccc(-c2noc(C(F)(F)F)n2)cc1)C(=O)C(C)(C)CCl [Compound 1.176, 3-chloro-2,2-dimethyl-N-prop-2-ynyl-N-[[4-[5-(trifluoromethyl)-1,2,4-oxadiazol-3-yl]phenyl]methyl]-propanamide]
≥ 80%: pest or weed control at 200 ppm [1] | pest or weed control at 200 ppm [2] | inhibition of growth at 20 ppm [3] | pest or weed control at 200 ppm (Phakopsora Pachyrhizi)

CCCN(Cc1ccc(-c2noc(C(F)(F)F)n2)cc1)C(=O)C1(C#N)CC1 [Compound 1.665, 1-cyano-N-propyl-N-[[4-[5-(trifluoromethyl)-1,2,4-oxadiazol-3-yl]phenyl]methyl]-cyclopropane-carboxamide]
≥ 80%: pest or weed control at 200 ppm [1] | pest or weed control at 200 ppm [2] | inhibition of growth at 20 ppm [3] | pest or weed control at 200 ppm (Phakopsora Pachyrhizi)

C=C(C)C(=O)N(Cc1ccc(-c2noc(C(F)(F)F)n2)cc1)C1CC1 [Compound 1.122, N-cyclopropyl-2-methyl-N-[[4-[5-(trifluoromethyl)-1,2,4-oxadiazol-3-yl]phenyl]methyl]prop-2-enamide]
≥ 80%: pest or weed control at 200 ppm [1] | pest or weed control at 200 ppm [2] | inhibition of growth at 20 ppm [3] | pest or weed control at 200 ppm (Phakopsora Pachyrhizi)

CON(Cc1ccc(-c2noc(C(F)(F)F)n2)cc1)C(=O)Cc1ccccc1 [Compound 1.4, N-methoxy-2-phenyl-N-[[4-[5-(trifluoromethyl)-1,2,4-oxadiazol-3-yl]phenyl]methyl]-acetamide]
≥ 80%: pest or weed control at 200 ppm [1] | pest or weed control at 200 ppm [2] | inhibition of growth at 20 ppm [3] | pest or weed control at 200 ppm (Phakopsora Pachyrhizi)

CCCOC(=O)N(Cc1ccc(-c2noc(C(F)(F)F)n2)cc1)OC [Compound 2.4, propyl N-methoxy-N-[[4-[5-(trifluoromethyl)-1,2,4-oxadiazol-3-yl]phenyl]methyl]-carbamate]
≥ 80%: pest or weed control at 200 ppm [1] | pest or weed control at 200 ppm [2] | inhibition of growth at 20 ppm [3] | pest or weed control at 200 ppm (Phakopsora Pachyrhizi)

C=CCN(C(=O)CC)C(C#N)c1ccc(-c2noc(C(F)(F)F)n2)cc1 (centres unmarked) [Compound 1.592, N-allyl-N-[cyano-[4-[5-(trifluoromethyl)-1,2,4-oxadiazol-3-yl]phenyl]methyl]-propanamide]
≥ 80%: pest or weed control at 200 ppm [1] | pest or weed control at 200 ppm [2] | inhibition of growth at 20 ppm [3] | pest or weed control at 200 ppm (Phakopsora Pachyrhizi)

CCN(Cc1ccc(-c2noc(C(F)(F)F)n2)cc1)C(=O)C1CCC1 [Compound 1.498, N-ethyl-N-[[4-[5-(trifluoromethyl)-1,2,4-oxadiazol-3-yl]phenyl]methyl]-cyclobulane-carboxamide]
≥ 80%: pest or weed control at 200 ppm [1] | pest or weed control at 200 ppm [2] | inhibition of growth at 20 ppm [3] | pest or weed control at 200 ppm (Phakopsora Pachyrhizi)

COCCN(Cc1ccc(-c2noc(C(F)(F)F)n2)cc1)C(=O)C1CCC1 [Compound 1.337, N-(2-methoxyethyl)-N-[[4-[5-(trifluoromethyl)-1,2,4-oxadiazol-3-yl]phenyl]methyl]-cyclobutane-carboxamide]
≥ 80%: pest or weed control at 200 ppm [1] | pest or weed control at 200 ppm [2] | inhibition of growth at 20 ppm [3] | pest or weed control at 200 ppm (Phakopsora Pachyrhizi)

CCON(Cc1ccc(-c2noc(C(F)(F)F)n2)cc1)C(=O)C(CC)COC (centres unmarked) [Compound 1.624, N-ethoxy-2-(methoxymethyl)-N-[[4-[5-(trifluoromethyl)-1,2,4-oxadiazol-3-yl]phenyl]methyl]-butanamide]
≥ 80%: pest or weed control at 200 ppm [1] | pest or weed control at 200 ppm [2] | inhibition of growth at 20 ppm [3] | pest or weed control at 200 ppm (Phakopsora Pachyrhizi)

COCCC(=O)ON(Cc1ccc(-c2noc(C(F)(F)F)n2)cc1)C(=O)CCOC [Compound 1.759, [3-methoxy-propanoyl-[[4-[5-(trifluoromethyl)-1,2,4-oxadiazol-3-yl]phenyl]methyl]-amino] 3-methoxypropanoate]
≥ 80%: pest or weed control at 200 ppm [1] | pest or weed control at 200 ppm [2] | inhibition of growth at 20 ppm [3] | pest or weed control at 200 ppm (Phakopsora Pachyrhizi)

N#CC1(C(=O)N(Cc2ccc(-c3noc(C(F)(F)F)n3)cc2)CC2CC2)CC1 [Compound 1.244, 1-cyano-N-(cyclopropylmethyl)-N-[[4-[5-(trifluoromethyl)-1,2,4-oxadiazol-3-yl]phenyl]methyl]-cyclopropane-carboxamide]
≥ 80%: pest or weed control at 200 ppm [1] | pest or weed control at 200 ppm [2] | inhibition of growth at 20 ppm [3] | pest or weed control at 200 ppm (Phakopsora Pachyrhizi)

O=C(NC1CC1)N(Cc1ccc(-c2noc(C(F)(F)F)n2)cc1)C1CC1 [Compound 3.36, 1,3-dicyclopropyl-1-[[4-[5-(trifluoromethyl)-1,2,4-oxadiazol-3-yl]phenyl]methyl]urea]
≥ 80%: pest or weed control at 200 ppm [1] | pest or weed control at 200 ppm [2] | inhibition of growth at 20 ppm [3] | pest or weed control at 200 ppm (Phakopsora Pachyrhizi)

O=C(c1ccccc1Cl)N(Cc1ccc(-c2noc(C(F)(F)F)n2)cc1)C1COC1 [Compound 1.740, 2-chloro-N-(oxetan-3-yl)-N-[[4-[5-(trifluoromethyl)-1,2,4-oxadiazol-3-yl]phenyl]methyl]-benzamide]
≥ 80%: pest or weed control at 200 ppm [1] | pest or weed control at 200 ppm [2] | inhibition of growth at 20 ppm [3] | pest or weed control at 200 ppm (Phakopsora Pachyrhizi)

C#CCN(Cc1ccc(-c2noc(C(F)(F)F)n2)cc1)C(=O)CCOC [Compound 1.173, 3-methoxy-N-prop-2-ynyl-N-[[4-[5-(trifluoromethyl)-1,2,4-oxadiazol-3-yl]phenyl]methyl]-propanamide]
≥ 80%: pest or weed control at 200 ppm [1] | pest or weed control at 200 ppm [2] | inhibition of growth at 20 ppm [3] | pest or weed control at 200 ppm (Phakopsora Pachyrhizi)

CON(Cc1ccc(-c2noc(C(F)(F)F)n2)cc1)C(=O)C1CC1(C)C (centres unmarked) [Compound 1.47, N-methoxy-2,2-dimethyl-N-[[4-[5-(trifluoromethyl)-1,2,4-oxadiazol-3-yl]phenyl]methyl]-cyclopropane-carboxamide]
≥ 80%: pest or weed control at 200 ppm [1] | pest or weed control at 200 ppm [2] | inhibition of growth at 20 ppm [3] | pest or weed control at 200 ppm (Phakopsora Pachyrhizi)

CCC(C)N(Cc1ccc(-c2noc(C(F)(F)F)n2)cc1)C(=O)COC(C)=O (centres unmarked) [Compound 1.392, [2-oxo-2-[sec-butyl-[[4-[5-(trifluoromethyl)-1,2,4-oxadiazol-3-yl]phenyl]methyl]-amino]ethyl] acetate]
≥ 80%: pest or weed control at 200 ppm [1] | pest or weed control at 200 ppm [2] | inhibition of growth at 20 ppm [3] | pest or weed control at 200 ppm (Phakopsora Pachyrhizi)

CNC(=O)N(Cc1ccc(-c2noc(C(F)(F)F)n2)cc1)OC [Compound 3.4, 1-methoxy-3-methyl-1-[[4-[5-(trifluoromethyl)-1,2,4-oxadiazol-3-yl]phenyl]methyl]urea]
≥ 80%: pest or weed control at 200 ppm [1] | pest or weed control at 200 ppm [2] | inhibition of growth at 20 ppm [3] | pest or weed control at 200 ppm (Phakopsora Pachyrhizi)

CC1(C)CC1C(=O)N(Cc1ccc(-c2noc(C(F)(F)F)n2)cc1)C1CC1 (centres unmarked) [Compound 1.124, N-cyclopropyl-2,2-dimethyl-N-[[4-[5-(trifluoromethyl)-1,2,4-oxadiazol-3-yl]phenyl]methyl]-cyclopropane-carboxamide]
≥ 80%: pest or weed control at 200 ppm [1] | pest or weed control at 200 ppm [2] | inhibition of growth at 20 ppm [3] | pest or weed control at 200 ppm (Phakopsora Pachyrhizi)

O=C(C1CC1(F)F)N(O)Cc1ccc(-c2noc(C(F)(F)F)n2)cc1 (centres unmarked) [Compound 1.753, 2,2-difluoroN-hydroxy-N-[[4-[5-(trifluoromethyl)-1,2,4-oxadiazol-3-yl]phenyl]methyl]-cyclopropane-carboxamide]
≥ 80%: pest or weed control at 200 ppm [1] | pest or weed control at 200 ppm [2] | inhibition of growth at 20 ppm [3] | pest or weed control at 200 ppm (Phakopsora Pachyrhizi)

CON(Cc1ccc(-c2noc(C(F)(F)F)n2)cc1)C(=O)C(C)C [Compound 1.12, N-methoxy-2-methyl-N-[[4-[5-(trifluoromethyl)-1,2,4-oxadiazol-3-yl]phenyl]methyl]-propanamide]
≥ 80%: pest or weed control at 200 ppm [1] | pest or weed control at 200 ppm [2] | inhibition of growth at 20 ppm [3] | pest or weed control at 200 ppm (Phakopsora Pachyrhizi)
